According to the pKa sets of Baltruschat and Czodrowski (2020):

Settings: acidic group

In order of falling pKa:
1. CC=O  16.8
2. CC(C)CNC=S  12.8
3. CCOC(=O)C(Cc1ccccc1)C(C)=O (stereo not given)  11.8
4. COO  11.5
5. Cn1nc(-c2ccccc2)cc1O  10.9
6. COC(=O)CC(C)=O  10.6
7. CN(C)c1cccc2c(S(N)(=O)=O)cccc12  9.9
8. O=C([O-])/C=C/c1ccccc1O  9.63
9. Cc1ccc(O)c(O)c1  9.62
10. NC(=O)/C(=N/O)c1ccccc1  9.55
11. COc1cccc(O)c1  9.51
12. Cc1ccc(S(=O)(=O)NCCC(N)=[NH2+])cc1  9.49
13. CSC1=NC(C)(C)C(O)=N1  9.48
14. CCC(=O)CC(C)=O  9.36
15. Nc1c(O)cccc1O  9.3
16. C/C(=N\O)C(=O)c1ccccc1  9.25
17. [S-]c1ccncc1  8.83
18. O=Cc1ncnc2nc[nH]c12  8.8
19. CC(C)C1NC(=S)NC1=O (stereo not given)  8.7
20. O=C1C=C(S(=O)(=O)[O-])/C(=N\O)c2cn[nH]c21  8.6
21. NNC(=O)CS  8.05
22. O=C(NO)c1ccc([N+](=O)[O-])cc1  8.02
23. COC(=O)[C@H](NC(=O)Cc1ccccc1)[C@@H]1SC(C)(C)[C@H]2C(=O)NC(=S)N12  8
24. O=C([O-])CNC(=O)c1cccc(O)c1O  7.7
25. CC(=O)/C=C(/C)O  7.64
26. O=CC1=CC=CC1  7.4
27. CC(c1ccccc1)[N+](=O)[O-] (stereo not given)  7.39
28. Nc1nc2cccc[n+]2o1  7.18
29. Oc1c(Cl)cccc1Cl  6.8
30. O=C1CCON1  6.7
31. Cc1ccc(O)c(Cc2cc([N+](=O)[O-])ccc2O)c1  6.34
32. Cc1cccc(NS(=O)(=O)c2ccc(N)cc2)[n+]1[O-]  5.9
33. CC[NH+]1CCC[C@@H]1CNC(=O)c1c(O)c(Cl)cc(Cl)c1OC  5.75
34. NC(=O)NS(=O)(=O)c1ccc(N)cc1  5.41
35. CC(=O)NS(=O)(=O)c1ccc(N)cc1  5.35
36. CCCCCCCCCC(=O)O  4.89
37. N#CC(C#N)=NNc1c(Cl)cccc1Cl  4.7
38. O=C(O)/C=C/c1ccc2c(c1)OCO2  4.6
39. [NH3+][C@H]1CC[C@@H](C(=O)O)CC1  4.6
40. Cc1ccc(/C=C/C(=O)O)cc1  4.56
41. O=C(/C=C(/[70SH])c1ccccc1)Nc1ccccc1  4.51
42. Cc1ccc(S(=O)(=O)NC(=O)OCc2ccccc2)cc1  4.21
43. CCCC(O)C(C(=O)O)c1ccc(-c2ccccc2)cc1 (stereo not given)  4.01
44. Cc1ccc(S(=O)(=O)NC(=O)OCc2ccc([N+](=O)[O-])cc2)cc1  3.8
45. CC(C)SCC(=O)O  3.72
46. Cc1ccc(C(=O)O)cc1[N+](=O)[O-]  3.62
47. CC1(C)CC(=O)C2=C(C1)NC1=C(C2)C(=O)CC(C)(C)C1  3.6
48. [NH3+]Cc1ccc(C(=O)O)cc1  3.59
49. O=C(O)c1ccc[se]1  3.43
50. C=C(OC)C(=O)O  3.38
51. Cc1c(Br)cccc1C(=O)O  3.36
52. O=C(O)Cn1cccc1  3.3
53. O=C(O)C[NH2+]CCc1nnn[nH]1  3.28
54. O=C(O)c1cc([N+](=O)[O-])ccc1CO  3.14
55. CC(=O)c1cc([N+](=O)[O-])ccc1C(=O)O  3.06
56. Cn1nnnc1CC(=O)O  2.83
57. CCC[NH2+]C(C)C(=O)O (stereo not given)  2.21
58. N#Cc1nn[nH]c1C#N  1.47

Same assay, conditions: basic group

In order of falling pKa:
1. CNC(=N)N  13.4
2. CC1=CCCN1C  11.9
3. C1CCN2C[C@@H]3C[C@@H](CN4CCCC[C@@H]34)[C@H]2C1  11.3
4. Cn1cccnc1=N  10.8
5. C[C@@H]1CCC[C@H](C)N1CC(C)(C)O  10.7
6. CCCCCCCCCCCCCCCCCCN  10.6
7. CN(C)CCCCCCCCCNC(=O)/C=N/[O-]  10.5
8. c1coc(C2CN3CCC2CC3)c1 (stereo not given)  10
9. CC1(C)CC(Nc2ccccc2)=C/C(=N/c2ccccc2)C1  9.89
10. Nc1ncnc([O-])c1N  9.86
11. CCCC[C@H](N)C(=O)[O-]  9.76
12. CCN(CC)CCNc1nc(N)nc(C)c1C  9.7
13. O=C([O-])[C@@H]1C[C@@H](O)CN1  9.64
14. CNCC/C(N)=N/O  9.6
15. C=C[C@]1(O)C[C@@H](C)N[C@H]2CCCC[C@@H]21  9.51
16. C=CCN(C)CCCNC(=O)/C=N/[O-]  9.5
17. C=C(C)C(=O)NC(C)(C)CCN(C)C  9.37
18. C[C@H](CCCNCc1ccccc1)[C@H]1CC[C@H]2[C@@H]3[C@@H](O)C[C@@H]4C[C@H](O)CC[C@]4(C)[C@H]3CC[C@]12C  9.05
19. COc1cnccc1N  9.03
20. CCCCCCCCOCCN(C)C  8.87
21. CCCSCCN(CC)CC  8.83
22. CC(=O)N(N)C1CCN(C)CC1  8.7
23. COC(=O)C1=CCCNC1  8.7
24. NCc1ccccc1[N+](=O)[O-]  8.59
25. c1ccc(C2=NSC(N3CCOCC3)=NS2)cc1  8.33
26. CN1CCC2=C(C1)C(c1ccccc1)c1ccccc12 (stereo not given)  8.29
27. COc1ccc(-c2cc3ccncc3[nH]2)c(OC)c1  8.29
28. NCc1cc(Cl)ccc1[N+](=O)[O-]  8.19
29. CCC(=O)C(c1ccccc1)(c1ccccc1)[C@@H](C)CN(C)C  8.07
30. CC[NH+](CC)CCNc1ccnc2ccccc12  8
31. CCNCC(=O)c1ccc(O)cc1  7.77
32. c1cc(N2CCOCC2)c2c(N3CCOCC3)cccc2c1  7.49
33. CC(=O)NN=C1CCN(C)CC1  7.45
34. CCOC(C)=N  7.15
35. CC(CC(c1ccccc1)c1ccccc1)N1CCOCC1 (stereo not given)  6.9
36. CN(C)/C=N/c1ccccc1Cl  6.85
37. Cc1cc(C)cc(C(=N)c2ccccc2)c1  6.82
38. c1cc(N2CCOCC2)ccc1N1CCCCC1  6.7
39. Cc1c(Cn2ccnc2)sc2ccc(C(=O)[O-])cc12  6.58
40. Clc1ccc(C(Cn2ccnc2)OCc2ccc(Sc3ccccc3)cc2)c(Cl)c1 (stereo not given)  6.54
41. Cn1cncc1C[C@H]([NH3+])C(=O)[O-]  6.53
42. C1CN(CC2CO2)CCO1 (stereo not given)  5.88
43. CN(C)c1ccc2c(c1)Sc1cc(N(C)C)ccc1N2  5.53
44. Cc1cn2nc(-c3ccccc3)cc(C)c2n1  5.3
45. Cc1cnc2c(c1)cc(C)c1cc(C)cnc12  5.27
46. CC(C)/[NH+]=C/N(C)c1ccc(-c2c[nH]cn2)cc1  5.25
47. COc1ccc(OC)c2c1nc(CO)n2C  5.24
48. Nc1c(O)cccc1O  5.1
49. OCc1cccnc1  5
50. CN(C)c1ccc2ccccc2c1  4.57
51. Cc1ccc(C)c(N)c1  4.47
52. Nc1cccc2cc3ccccc3nc12  4.4
53. CSCc1cccc(CSC)n1  4.19
54. COc1ccc(C[NH3+])cc1N  4.16
55. CN(C)c1cccc2c(S(N)(=O)=O)cccc12  3.8
56. CS(=O)Cc1ccccn1 (stereo not given)  3.1
57. Nc1ccc2cccc([N+](=O)[O-])c2c1  2.86
58. O=Cc1ncnc2nc[nH]c12  2.4
59. Cc1cc(C)n(-c2cc(C)n(C)n2)n1  2.19
60. CC(=O)NS(=O)(=O)c1ccc(N)cc1  1.58
61. CCN(Cl)CC  1.02
62. O=[N+]([O-])c1ccc(NO)cc1  0.65
63. c1ccc2c(c1)CCC2N(c1ccc2ccccc2c1)C1CCc2ccccc21 (stereo not given)  0.25
64. CC=O  -0.57
65. N#CC(C#N)=NNc1c(Cl)cccc1Cl  -0.67
66. Nc1ccc[nH+]c1  -1.37
67. Cc1ncc[nH+]c1C  -4.17
